# Test results reported in paper PMC10536065 (ACS Omega, 2023).
# Entries after “also recorded” stand apart in the source; their conditions may differ.
# What was measured:
# Type I collagen [1] = target: T1, Type I collagen (Bos taurus, UniProt P02453+P02465); experiment: ELISA saturation binding to collagen; set-up: species or system bovine
# [2] = Circular dichroism spectroscopy; type: physicochemical; conditions: NaCl, MgCl2, CaCl2; 10 μM peptide
# Type I collagen [3] = target: T1, Type I collagen; experiment: Inhibition of cCBD-LL37 binding to collagen by cCBD; set-up: species or system bovine; conditions: 500 nM cCBD-LL37 with 0–500 nM cCBD, 1 h room temperature; n = 4
# T1 sequence (P02453 162-1217 limits assumed): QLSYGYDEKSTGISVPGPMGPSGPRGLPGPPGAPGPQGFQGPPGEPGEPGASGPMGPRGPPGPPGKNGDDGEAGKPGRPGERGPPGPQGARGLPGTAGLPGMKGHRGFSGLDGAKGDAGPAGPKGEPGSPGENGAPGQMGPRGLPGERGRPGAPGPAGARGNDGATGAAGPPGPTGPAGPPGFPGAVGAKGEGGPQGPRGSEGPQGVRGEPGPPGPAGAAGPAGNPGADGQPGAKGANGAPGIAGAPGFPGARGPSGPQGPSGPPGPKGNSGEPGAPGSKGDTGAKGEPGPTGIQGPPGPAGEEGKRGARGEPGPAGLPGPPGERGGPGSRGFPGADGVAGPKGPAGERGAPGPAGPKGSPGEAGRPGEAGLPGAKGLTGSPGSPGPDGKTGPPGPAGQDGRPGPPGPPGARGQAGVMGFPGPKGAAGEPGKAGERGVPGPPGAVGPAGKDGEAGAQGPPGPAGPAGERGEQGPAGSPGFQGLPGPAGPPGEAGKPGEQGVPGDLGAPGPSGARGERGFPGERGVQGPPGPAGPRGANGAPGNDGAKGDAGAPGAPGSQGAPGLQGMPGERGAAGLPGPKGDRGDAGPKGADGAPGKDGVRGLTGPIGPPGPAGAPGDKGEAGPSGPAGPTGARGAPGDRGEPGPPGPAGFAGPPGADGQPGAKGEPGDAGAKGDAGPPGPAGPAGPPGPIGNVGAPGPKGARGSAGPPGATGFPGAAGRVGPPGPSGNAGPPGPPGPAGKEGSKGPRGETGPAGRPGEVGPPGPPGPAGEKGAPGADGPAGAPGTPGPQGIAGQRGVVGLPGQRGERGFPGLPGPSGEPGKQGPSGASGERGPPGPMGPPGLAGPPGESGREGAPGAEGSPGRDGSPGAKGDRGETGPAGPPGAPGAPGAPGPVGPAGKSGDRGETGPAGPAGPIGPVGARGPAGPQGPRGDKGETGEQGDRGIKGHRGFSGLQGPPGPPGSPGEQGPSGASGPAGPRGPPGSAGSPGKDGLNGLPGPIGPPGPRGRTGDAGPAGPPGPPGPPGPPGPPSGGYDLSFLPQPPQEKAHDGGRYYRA
# T1 sequence (P02465 80-1117 limits assumed): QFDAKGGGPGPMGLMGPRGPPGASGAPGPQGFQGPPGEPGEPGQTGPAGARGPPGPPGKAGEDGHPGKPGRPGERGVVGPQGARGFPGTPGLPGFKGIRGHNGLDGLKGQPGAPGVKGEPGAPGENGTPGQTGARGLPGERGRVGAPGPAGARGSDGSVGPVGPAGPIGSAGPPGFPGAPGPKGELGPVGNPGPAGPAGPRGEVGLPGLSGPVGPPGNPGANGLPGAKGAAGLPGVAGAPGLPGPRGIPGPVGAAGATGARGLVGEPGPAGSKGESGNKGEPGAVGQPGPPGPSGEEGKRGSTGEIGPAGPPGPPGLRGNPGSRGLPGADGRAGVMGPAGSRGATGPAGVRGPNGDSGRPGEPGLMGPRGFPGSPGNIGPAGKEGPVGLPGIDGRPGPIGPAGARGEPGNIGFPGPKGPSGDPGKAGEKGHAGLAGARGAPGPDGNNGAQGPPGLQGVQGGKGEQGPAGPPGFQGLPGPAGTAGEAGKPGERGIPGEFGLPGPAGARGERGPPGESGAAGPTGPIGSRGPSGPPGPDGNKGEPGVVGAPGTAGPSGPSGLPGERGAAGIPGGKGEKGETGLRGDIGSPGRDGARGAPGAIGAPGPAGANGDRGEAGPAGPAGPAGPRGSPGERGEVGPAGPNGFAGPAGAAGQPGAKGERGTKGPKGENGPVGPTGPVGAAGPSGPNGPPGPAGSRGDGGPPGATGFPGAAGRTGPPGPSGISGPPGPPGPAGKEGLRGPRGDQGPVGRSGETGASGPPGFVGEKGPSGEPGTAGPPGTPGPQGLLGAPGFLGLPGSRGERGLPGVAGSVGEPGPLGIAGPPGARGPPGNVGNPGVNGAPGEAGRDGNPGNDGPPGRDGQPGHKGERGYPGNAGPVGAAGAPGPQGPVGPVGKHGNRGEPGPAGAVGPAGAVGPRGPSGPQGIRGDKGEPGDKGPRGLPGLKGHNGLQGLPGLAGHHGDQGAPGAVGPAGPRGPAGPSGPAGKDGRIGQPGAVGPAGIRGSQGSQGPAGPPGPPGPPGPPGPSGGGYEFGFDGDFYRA
Molecule,Kd (Type I collagen [1]) [nM],structural stability at varying ionic strengths compared with LL37 [2],inhibition of cCBD-LL37 binding to collagen by excess cCBD (Type I collagen [3])
"CC[C@H](C)[C@H](NC(=O)[C@H](CCCCN)NC(=O)[C@H](CCC(=O)O)NC(=O)[C@H](CCCCN)NC(=O)[C@H](CO)NC(=O)[C@H](CCCCN)NC(=O)[C@H](CCCNC(=N)N)NC(=O)[C@H](Cc1ccccc1)NC(=O)[C@H](Cc1ccccc1)NC(=O)[C@H](CC(=O)O)NC(=O)CNC(=O)[C@H](CC(C)C)NC(=O)[C@@H](N)CC(C)C)C(=O)NCC(=O)N[C@@H](CCCCN)C(=O)N[C@@H](CCC(=O)O)C(=O)N[C@@H](Cc1ccccc1)C(=O)N[C@@H](CCCCN)C(=O)N[C@@H](CCCNC(=N)N)C(=O)N[C@H](C(=O)N[C@H](C(=O)N[C@@H](CCC(N)=O)C(=O)N[C@@H](CCCNC(=N)N)C(=O)N[C@H](C(=O)N[C@@H](CCCCN)C(=O)N[C@@H](CC(=O)O)C(=O)N[C@@H](Cc1ccccc1)C(=O)N[C@@H](CC(C)C)C(=O)N[C@@H](CCCNC(=N)N)C(=O)N[C@@H](CC(N)=O)C(=O)N[C@@H](CC(C)C)C(=O)N[C@H](C(=O)N1CCC[C@H]1C(=O)N[C@@H](CCCNC(=N)N)C(=O)N[C@H](C(=O)N[C@@H](CCC(=O)O)C(=O)N[C@@H](CO)C(=O)O)[C@@H](C)O)C(C)C)[C@@H](C)CC)C(C)C)[C@@H](C)CC [LL37, reference compound]",80,–,–
CC[C@H](C)[C@H](NC(=O)[C@H](CCCCN)NC(=O)[C@H](CCC(=O)O)NC(=O)[C@H](CCCCN)NC(=O)[C@H](CO)NC(=O)[C@H](CCCCN)NC(=O)[C@H](CCCNC(=N)N)NC(=O)[C@H](Cc1ccccc1)NC(=O)[C@H](Cc1ccccc1)NC(=O)[C@H](CC(=O)O)NC(=O)CNC(=O)[C@H](CC(C)C)NC(=O)[C@@H](N)CC(C)C)C(=O)NCC(=O)N[C@@H](CCCCN)C(=O)N[C@@H](CCC(=O)O)C(=O)N[C@@H](Cc1ccccc1)C(=O)N[C@@H](CCCCN)C(=O)N[C@@H](CCCNC(=N)N)C(=O)N[C@H](C(=O)N[C@H](C(=O)N[C@@H](CCC(N)=O)C(=O)N[C@@H](CCCNC(=N)N)C(=O)N[C@H](C(=O)N[C@@H](CCCCN)C(=O)N[C@@H](CC(=O)O)C(=O)N[C@@H](Cc1ccccc1)C(=O)N[C@@H](CC(C)C)C(=O)N[C@@H](CCCNC(=N)N)C(=O)N[C@@H](CC(N)=O)C(=O)N[C@@H](CC(C)C)C(=O)N[C@H](C(=O)N1CCC[C@H]1C(=O)N[C@@H](CCCNC(=N)N)C(=O)N[C@H](C(=O)N[C@@H](CCC(=O)O)C(=O)N[C@@H](CO)C(=O)N[C@@H](CC(=O)O)C(=O)N[C@@H](Cc1ccc(O)cc1)C(=O)N[C@@H](CCCCN)C(=O)N[C@@H](CC(=O)O)C(=O)N[C@@H](CC(=O)O)C(=O)N[C@@H](CC(=O)O)C(=O)N[C@@H](CC(=O)O)C(=O)N[C@@H](CCCCN)C(=O)N[C@H](C(=O)N[C@@H](CCCCN)C(=O)N[C@@H](CCCCN)C(=O)N[C@H](C(=O)N[C@@H](CC(C)C)C(=O)N[C@@H](CCCNC(=N)N)C(=O)N[C@H](C(=O)O)[C@@H](C)O)[C@@H](C)O)[C@@H](C)O)[C@@H](C)O)C(C)C)[C@@H](C)CC)C(C)C)[C@@H](C)CC [cCBD-LL37],49,stronger structural stability at varying ionic strengths when compared with LL37,–
DYKDDDDKTKKTLRT [cCBD],–,–,significantly (*p < 0.05) inhibited cCBD-LL37 binding to collagen; also recorded: inhibited cCBD-LL37 binding to collagen but did not completely abrogate the binding
